Values after ≈ are worked out from the molar mass of the structure shown. Where two headings read alike, the source gives them in different places. Ends that are not written are not given here. Peptide text beside a SMILES is read from it.
How the values were obtained:
P. aeruginosa = type: cell-based, Pseudomonas aeruginosa
Experimental: (§1) In certain embodiments the MIC assays are performed as described herein in the Examples. For each organism, the media and growth conditions utilized is detailed in Table 8.
(§2) In certain embodiments the MIC assays are performed as follows: For each organism, the media and growth conditions utilized is detailed in Table 8.

P. gingivalis = type: cell-based, Porphyromonas gingivalis
Experimental: as §1, §2

M. furfur = experiment: MIC assay; type: cell-based, Malassezia furfur; settings: ATCC medium 1072, 37° C., aerobic, 10^5 CFU/ml
Experimental: as §1, §2

S. mutans = type: cell-based, Streptococcus mutans
Experimental: as §1, §2

MRSA = type: cell-based, Staphylococcus aureus; settings: MRSA; BHI supplemented with 2% glucose, 37° C., aerobic, 10^5 CFU/ml
Experimental: as §1, §2

T. rubrum = type: cell-based, Trichophyton rubrum
Experimental: as §1, §2

S. epidermidis = type: cell-based
Experimental: as §1, §2

E. coli = type: cell-based, Escherichia coli
Experimental: as §1, §2

S. pneumoniae = type: cell-based, Streptococcus pneumoniae
Experimental: as §1, §2

A. naeslundii = type: cell-based, Actinomyces naeslundii
Experimental: as §1, §2

A. niger = type: cell-based, Aspergillus niger
Experimental: as §1, §2

A. baumannii = type: cell-based, Acinetobacter baumannii
Experimental: as §1, §2

B. subtilis = type: cell-based, Bacillus subtilis
Experimental: as §1, §2

C. difficile = type: cell-based, Clostridium difficile
Experimental: as §1, §2

C. jeikeium = type: cell-based, Corynebacterium jeikium
Experimental: as §1, §2

C. albicans = type: cell-based, Candida albicans
Experimental: as §1, §2

F. nucleatum = type: cell-based, Fusobacterium nucleatum
Experimental: as §1, §2

[1] = P. aeruginosa, MH, 37° C., aerobic, 10^5 CFU/ml
[2] = T. rubrum, Potato Dextrose Agar, 25° C., aerobic, 10^5 CFU/ml
[3] = S. epidermidis, BHI supplemented with 0.25% glucose, 37° C., aerobic, 10^5 CFU/ml

Molecule: CC[C@H](C)[C@H](NC(=O)[C@@H](NC(=O)[C@H](CO)NC(=O)CN)C(C)C)C(=O)N[C@@H](CCCCN)C(=O)N[C@@H](CCCCN)C(=O)N[C@@H](CCCNC(=N)N)C(=O)N[C@@H](CCCNC(=N)N)C(=O)N[C@@H](CCCCN)C(=O)N[C@@H](CCCNC(=N)N)C(=O)N[C@@H](CCSC)C(=O)N[C@@H](CO)C(=O)N[C@@H](CCCCN)C(=O)N[C@@H](CCCCN)C(=O)N[C@@H](CCCCN)C(=O)N[C@@H](Cc1c[nH]cn1)C(=O)N[C@@H](CCCNC(=N)N)C(=O)N[C@@H](CCCCN)C(=O)N[C@@H](CCSC)C(=O)N[C@@H](CC(C)C)C(=O)N[C@@H](CCCNC(=N)N)C(=O)N[C@@H](CCCNC(=N)N)C(=O)N[C@H](C(=O)N[C@@H](CCCNC(=N)N)C(=O)N[C@H](C(=O)N[C@@H](CCC(N)=O)C(=O)N[C@@H](CCCNC(=N)N)C(=O)N[C@@H](CCCNC(=N)N)C(=O)N[C@@H](CCCCN)C(=O)N[C@@H](CC(C)C)C(=O)NCC(=O)N[C@@H](CCCCN)C(=O)O)C(C)C)[C@@H](C)O [PF-S028]
- MIC (P. aeruginosa; [1]): 50 µM (≈ 202 µg/mL)
- MIC (P. gingivalis; P. gingivalis, Columbia broth, 37° C., anaerobic, 10^5 CFU/ml): 25 µM (≈ 101 µg/mL)
- MIC (M. furfur): 2.5 µM (≈ 10.1 µg/mL)
- MIC (S. mutans; S. mutans, TH supplemented with 1% sucrose, 37° C., anaerobic, 10^5 CFU/ml): 50 µM (≈ 202 µg/mL)
- MIC (MRSA): 50 µM (≈ 202 µg/mL)
- MIC (T. rubrum; [2]): 50 µM (≈ 202 µg/mL)
- MIC (S. epidermidis; [3]): 25 µM (≈ 101 µg/mL)

Molecule: TKKIELKRFVDAFVKKSYENYILERELKKLIKAINEELPTK [PF-600]
- MIC (E. coli): 50 µM
- MIC (S. pneumoniae): 50 µM

Molecule: MPVSKKRYMLSSAYATALGICYGQVATDEKESEITAIPDLLDYLSVEEYLL [PF-C163]
- MIC (P. gingivalis): 50 µM
- MIC (A. naeslundii): 50 µM
- MIC (S. epidermidis): 50 µM

Molecule: CC[C@H](C)[C@H](NC(=O)[C@H](CCCCN)NC(=O)[C@@H](NC(=O)[C@H](CCCCN)NC(=O)[C@H](CCCCN)NC(=O)[C@@H](NC(=O)[C@H](CCCCN)NC(=O)[C@@H]1CCCN1C(=O)[C@H](CCCNC(=N)N)NC(=O)[C@@H]1CCCN1C(=O)[C@H](CCC(N)=O)NC(=O)[C@H](CCC(N)=O)NC(=O)[C@H](CC(N)=O)NC(=O)[C@H](CC(C)C)NC(=O)[C@H](Cc1c[nH]cn1)NC(=O)[C@H](Cc1ccccc1)NC(=O)[C@H](CCC(N)=O)NC(=O)[C@@H](NC(=O)[C@@H](N)Cc1ccc(O)cc1)[C@@H](C)CC)C(C)C)[C@@H](C)CC)C(=O)N[C@@H](Cc1ccccc1)C(=O)N[C@@H](CC(C)C)C(=O)O [PF-531] (H-YIQFHLNQQPRPKVKKIKIFL-OH; N-terminus and C-terminus assumed)
- MIC (P. aeruginosa): 50 µM (≈ 132 µg/mL)
- MIC (A. niger): 25 µM (≈ 66 µg/mL)
- MIC (A. baumannii): 25 µM (≈ 66 µg/mL)
- MIC (B. subtilis): 25 µM (≈ 66 µg/mL)
- MIC (S. mutans): 12.5 µM (≈ 33 µg/mL)
- MIC (C. difficile): 12.5 µM (≈ 33 µg/mL)
- MIC (C. jeikeium): 6.25 µM (≈ 16.5 µg/mL)
- MIC (T. rubrum): 50 µM (≈ 132 µg/mL)
- MIC (S. epidermidis): 50 µM (≈ 132 µg/mL)

Molecule: CC[C@H](C)[C@H](NC(=O)[C@H](CCCCN)NC(=O)[C@H](C)NC(=O)[C@H](Cc1ccccc1)NC(=O)[C@@H](NC(=O)[C@H](C)NC(=O)[C@H](CC(C)C)NC(=O)[C@H](CO)NC(=O)[C@@H](N)CC(C)C)[C@@H](C)O)C(=O)N[C@@H](Cc1ccccc1)C(=O)N[C@@H](CCSC)C(=O)N[C@H](C(=O)N[C@@H](CCCNC(=N)N)C(=O)N[C@@H](CO)C(=O)N[C@@H](CC(N)=O)C(=O)N[C@@H](Cc1c[nH]c2ccccc12)C(=O)N[C@@H](CO)C(=O)N[C@@H](CC(C)C)C(=O)N[C@@H](CCCCN)C(=O)N[C@@H](CCCNC(=N)N)C(=O)N[C@@H](Cc1ccccc1)C(=O)N[C@@H](CC(N)=O)C(=O)N[C@@H](CCCNC(=N)N)C(=O)N[C@@H](CC(C)C)C(=O)O)[C@@H](C)O [PF-278] (H-LSLATFAKIFMTRSNWSLKRFNRL-OH; N-terminus and C-terminus assumed)
- MIC (C. albicans): 50 µM
- MIC (T. rubrum): 50 µM
- MIC (S. epidermidis): 50 µM

Molecule: CC[C@H](C)[C@H](NC(=O)[C@H](CCCCN)NC(=O)CNC(=O)[C@H](CC(C)C)NC(=O)[C@H](CC(N)=O)NC(=O)[C@@H](NC(=O)[C@H](CCC(=O)O)NC(=O)[C@H](CC(C)C)NC(=O)[C@H](Cc1c[nH]c2ccccc12)NC(=O)[C@H](CC(=O)O)NC(=O)[C@@H](NC(=O)[C@H](CC(C)C)NC(=O)[C@H](CCC(=O)O)NC(=O)[C@@H](N)Cc1ccccc1)C(C)C)[C@@H](C)O)C(=O)N[C@@H](CC(C)C)C(=O)N[C@@H](CCCCN)C(=O)N[C@@H](CO)C(=O)N[C@@H](CCCCN)C(=O)N[C@@H](CO)C(=O)N[C@@H](C)C(=O)O [PF-522] (H-FELVDWLETNLGKILKSKSA-OH; N-terminus and C-terminus assumed)
- MIC (C. difficile): 25 µM (≈ 57.3 µg/mL)

Molecule: CC[C@H](C)[C@H](NC(=O)[C@H](CCCNC(=N)N)NC(=O)[C@@H](NC(=O)[C@H](CCCCN)NC(=O)[C@H](CCCCN)NC(=O)[C@H](CC(C)C)NC(=O)[C@H](CC(C)C)NC(=O)[C@H](CCCCN)NC(=O)[C@H](CCCNC(=N)N)NC(=O)[C@H](Cc1c[nH]cn1)NC(=O)[C@H](CCCCN)NC(=O)[C@H](CCCCN)NC(=O)[C@H](CCCCN)NC(=O)[C@H](C)NC(=O)[C@H](CCSC)NC(=O)[C@H](CCCNC(=N)N)NC(=O)[C@H](CCCCN)NC(=O)[C@H](CCCNC(=N)N)NC(=O)[C@H](CCCNC(=N)N)NC(=O)[C@H](CCCCN)NC(=O)[C@H](CCCCN)NC(=O)[C@@H](NC(=O)[C@@H](NC(=O)[C@H](CO)NC(=O)CN)C(C)C)[C@@H](C)CC)[C@@H](C)O)C(=O)N[C@@H](CCC(N)=O)C(=O)N[C@@H](CCCNC(=N)N)C(=O)N[C@@H](CCCNC(=N)N)C(=O)N[C@@H](CCCNC(=N)N)C(=O)N[C@@H](C)C(=O)NCC(=O)N[C@@H](CCCCN)C(=O)O [PF-527] (H-GSVIKKRRKRMAKKKHRKLLKKTRIQRRRAGK-OH; N-terminus and C-terminus assumed)
- MIC (P. aeruginosa; [1]): 50 µM (≈ 197 µg/mL)
- MIC (A. niger; A. niger, Potato Dextrose Agar, 25° C., aerobic, 10^5 CFU/ml): 50 µM (≈ 197 µg/mL)
- MIC (MRSA): 50 µM (≈ 197 µg/mL)
- MIC (T. rubrum; [2]): 25 µM (≈ 98.5 µg/mL)
- MIC (S. epidermidis; [3]): 25 µM (≈ 98.5 µg/mL)

Molecule: CC[C@H](C)[C@H](NC(=O)CNC(=O)[C@@H](N)CCSC)C(=O)N[C@H](C(=O)N[C@@H](C)C(=O)NCC(=O)N[C@H](C(=O)N[C@H](C(=O)N[C@@H](CCCCN)C(=O)N[C@@H](Cc1ccccc1)C(=O)N[C@H](C(=O)N[C@@H](CCCCN)C(=O)NCC(=O)N[C@@H](CC(C)C)C(=O)N[C@H](C(=O)N[C@@H](CCC(=O)O)C(=O)N[C@@H](CCCCN)C(=O)N[C@@H](Cc1ccccc1)C(=O)N[C@H](C(=O)NCC(=O)N[C@@H](CCCCN)C(=O)O)[C@@H](C)O)[C@@H](C)CC)[C@@H](C)CC)[C@@H](C)CC)[C@@H](C)CC)[C@@H](C)CC [PF-006]
- MIC (A. baumannii; A. baumannii, LB, 30° C., anaerobic, 10^5 CFU/ml): 50 µM (≈ 114 µg/mL)
- MIC (B. subtilis; B. subtilis, BHI, 30° C., aerobic, 10^5 CFU/ml): 25 µM (≈ 56.9 µg/mL)
- MIC (MRSA): 50 µM (≈ 114 µg/mL)

Molecule: CC(C)[C@H](NC(=O)[C@@H](N)Cc1ccc(O)cc1)C(=O)N[C@@H](CC(N)=O)C(=O)N[C@@H](Cc1ccc(O)cc1)C(=O)N[C@@H](CC(N)=O)C(=O)N[C@@H](CCC(N)=O)C(=O)N[C@@H](CO)C(=O)N[C@@H](Cc1ccccc1)C(=O)N[C@@H](CC(N)=O)C(=O)N[C@@H](CO)C(=O)NCC(=O)N[C@@H](Cc1c[nH]c2ccccc12)C(=O)O [PF-C220] (H-YVNYNQSFNSGW-OH; N-terminus and C-terminus assumed)
- MIC (C. albicans): 50 µM (≈ 73.9 µg/mL)

Molecule: CC[C@H](C)[C@H](NC(=O)[C@H](CCC(N)=O)NC(=O)[C@H](CCCCN)NC(=O)[C@H](CC(C)C)NC(=O)[C@H](CC(C)C)NC(=O)[C@@H]1CCCN1C(=O)[C@H](CCSC)NC(=O)[C@H](CC(C)C)NC(=O)[C@H](CO)NC(=O)[C@H](CCCCN)NC(=O)CNC(=O)[C@@H](N)CCCCN)C(=O)N[C@@H](CC(N)=O)C(=O)N[C@@H](CCC(N)=O)C(=O)N[C@@H](Cc1c[nH]c2ccccc12)C(=O)NCC(=O)N[C@@H](CCCCN)C(=O)N[C@@H](CC(C)C)C(=O)N[C@@H](Cc1ccc(O)cc1)C(=O)N[C@@H](CC(C)C)C(=O)O [PF-C239] (H-KGKSLMPLLKQINQWGKLYL-OH; N-terminus and C-terminus assumed)
- MIC (P. gingivalis): 50 µM (≈ 118 µg/mL)
- MIC (S. mutans): 50 µM (≈ 118 µg/mL)
- MIC (F. nucleatum): 50 µM (≈ 118 µg/mL)
- MIC (A. naeslundii): 25 µM (≈ 59 µg/mL)

Source: US20100184684A1, “ANTIBACTERIAL AND ANTIFUNGAL PEPTIDES” (C3 JIAN, INC., priority 2009, published 2010)
